According to patent US10344019B2 (priority 2010, dated 2019):

How the values were obtained:
Format in all cases: cell-based
[1] = test system: HCV 1a RLuc cells (dicistronic genotype 1a H77 replicon, RLuc reporter); experiment: microbe, parasite or virus in culture; conditions: Hepatitis C virus, genotype 1a H77 RLuc replicon; read-out: 1a
Outline: (§1)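 Replicons used: genotype 1b Con1, 1a H77, 2a JFH-1, and a 2a JFH-1 chimera with J6-strain NS5A (M31 present), all dicistronic.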

[2] = test system: HCV 4a Rluc cells (NS5A chimeric genotype 1b Con1 replicon with genotype 4a NS5A gene); experiment: microbe, parasite or virus in culture; conditions: Hepatitis C virus, read-out: 4a
Outline: (§2)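 Replicon cells stably carrying the listed RLuc-encoding dicistronic replicons were seeded and treated with DMSO serial dilutions of compound (10 mM stocks) diluted into culture medium. After 72 h, cells were lysed and Renilla luciferase activity measured. EC50 was derived by non-linear regression.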

[3] = test system: HCV 2a JFH-1 Rluc cells (dicistronic genotype 2a JFH-1 replicon, RLuc reporter); experiment: microbe, parasite or virus in culture; conditions: Hepatitis C virus, genotype 2a JFH-1 RLuc replicon; read-out: 2a JFH
Outline: as §1

[4] = test system: HCV 2b Rluc cells (NS5A chimeric genotype 2a JFH-1 replicon with genotype 2b MD2b-1 NS5A gene, M31 present); experiment: microbe, parasite or virus in culture; conditions: Hepatitis C virus, read-out: 2b
Outline: as §2

[5] = test system: HCV 1b RLuc cells (dicistronic genotype 1b Con1 replicon, RLuc reporter); experiment: microbe, parasite or virus in culture; conditions: Hepatitis C virus, read-out: 1b (nM)
Outline: as §1

[6] = test system: HCV 2a Rluc cells (NS5A chimeric genotype 2a JFH-1 replicon with genotype 2a J6 strain NS5A gene, M31 present); experiment: HCV replicon reporter assay, genotype 2a J6 (M31 present); conditions: Hepatitis C virus, read-out: 2a J6
Outline: as §1

[7] = test system: HCV 3a RLuc cells (NS5A chimeric genotype 1b Con1 replicon with consensus genotype 3a NS5A gene); experiment: microbe, parasite or virus in culture; conditions: Hepatitis C virus, read-out: 3a, genotype 3a NS5A chimeric replicon
Outline: as §2

Compound	EC50 [1]	EC50 [2]	EC50 [3]	EC50 [4]	EC50 [5]	EC50 [6]	EC50 [7]
CC[C@H](C)[C@H](NC(=O)OC)C(=O)N1[C@@H]2C[C@@H]2C[C@H]1c1nc2ccc3cc(-c4ccc5c(ccc6nc([C@@H]7C[C@H](COC)CN7C(=O)[C@H](NC(=O)C7CC7)c7ccccc7)[nH]c65)c4)ccc3c2[nH]1 [Example 531]	0.001 to 0.999 nM	0.001 to 0.99 nM	0.001 to 0.999 nM	0.001 to 0.999 nM	0.018 nM	0.001 to 0.999 nM	–
COC[C@H]1C[C@@H](c2nc3ccc4cc(-c5ccc6c(ccc7nc([C@@H]8C[C@H]9C[C@H]9N8C(=O)[C@@H](NC(=O)OC)C(C)(C)C)[nH]c76)c5)ccc4c3[nH]2)N(C(=O)[C@H](NC(=O)C2CC2)c2ccccc2)C1 [Example 532]	0.001 to 0.999 nM	0.001 to 0.99 nM	0.001 to 0.999 nM	0.001 to 0.999 nM	0.009 nM	0.001 to 0.999 nM	–
COC[C@H]1C[C@@H](c2nc3ccc4cc(-c5ccc(-c6cnc([C@@H]7CCCN7C(=O)[C@@H](NC(=O)OC)C(C)C)[nH]6)cc5)ccc4c3[nH]2)N(C(=O)[C@H](NC(=O)C2CCC2)c2ccccc2)C1 [Example 533]	0.001 to 0.999 nM	0.001 to 0.99 nM	0.001 to 0.999 nM	0.001 to 0.999 nM	0.012 nM	0.001 to 0.999 nM	–
CC[C@H](C)[C@H](NC(=O)OC)C(=O)N1CCC[C@H]1c1ncc(-c2ccc(-c3ccc4c(ccc5nc([C@@H]6C[C@H](COC)CN6C(=O)[C@H](NC(=O)C6CC6)c6ccccc6)[nH]c54)c3)cc2)[nH]1 [Example 534]	0.001 to 0.999 nM	0.001 to 0.99 nM	0.001 to 0.999 nM	0.001 to 0.999 nM	0.011 nM	0.001 to 0.999 nM	–
COC(=O)N[C@H](C(=O)N1CCC[C@H]1c1nc2ccc3cc(-c4ccc5c(ccc6nc([C@@H]7C[C@H](SC)CN7C(=O)[C@H](NC(=O)OC)c7ccccc7)[nH]c65)c4)ccc3c2[nH]1)C(C)C [Example 535]	0.001 to 0.999 nM	0.001 to 0.99 nM	0.001 to 0.999 nM	0.001 to 0.999 nM	0.022 nM	0.001 to 0.999 nM	–
COC[C@H]1C[C@@H](c2nc3ccc4cc(-c5ccc6c(ccc7nc([C@@H]8CCCN8C(=O)[C@@H](NC(=O)OC)C(C)C)[nH]c76)c5)ccc4c3[nH]2)N(C(=O)[C@H](NC(=O)C2CCC2)c2ccccc2)C1 [Example 537]	0.001 to 0.999 nM	0.001 to 0.99 nM	0.001 to 0.999 nM	0.001 to 0.999 nM	0.014 nM	0.001 to 0.999 nM	–
COC[C@H]1C[C@@H](c2nc3ccc4cc(-c5ccc6c(ccc7nc([C@@H]8C[C@H](C)CN8C(=O)[C@@H](NC(=O)OC)C(C)C)[nH]c76)c5)ccc4c3[nH]2)N(C(=O)[C@H](NC(=O)C2CCC2)c2ccccc2)C1 [Example 541]	0.001 to 0.999 nM	0.001 to 0.99 nM	0.001 to 0.999 nM	0.001 to 0.999 nM	0.034 nM	0.001 to 0.999 nM	–
COC[C@H]1C[C@@H](c2nc3ccc4cc(-c5ccc6c(ccc7nc([C@@H]8C[C@H](C)CN8C(=O)[C@@H](NC(=O)OC)C(C)C)[nH]c76)c5)ccc4c3[nH]2)N(C(=O)[C@H](NC(=O)C2CC(F)(F)C2)c2ccccc2)C1 [Example 542]	0.001 to 0.999 nM	0.001 to 0.99 nM	0.001 to 0.999 nM	0.001 to 0.999 nM	0.05 nM	0.001 to 0.999 nM	–
COC[C@H]1C[C@@H](c2ncc(-c3ccc(-c4ccc(-c5cnc([C@@H]6C[C@H](C)CN6C(=O)[C@H](NC(=O)C6CC6)c6ccccc6)[nH]5)cc4)cc3)[nH]2)N(C(=O)[C@@H](NC(=O)OC)C(C)C)C1 [Example 557]	0.001 to 0.999 nM	0.001 to 0.99 nM	0.001 to 0.999 nM	0.001 to 0.999 nM	0.028 nM	0.001 to 0.999 nM	–
COC[C@H]1C[C@@H](c2nc3ccc4cc5c(cc4c3[nH]2)OCc2cc(-c3ccc4nc([C@@H]6CCCN6C(=O)[C@@H](NC(=O)OC)C(C)C)[nH]c4c3)ccc2-5)N(C(=O)[C@@H](NC(=O)OC)C(C)C)C1 [Example 563]	0.001 to 0.999 nM	0.001 to 0.99 nM	0.001 to 0.999 nM	> 44 nM	0.007 nM	> 44 nM	–
CC[C@H](C)[C@H](NC(=O)OC)C(=O)N1C[C@@H](COC)C[C@H]1c1ncc(-c2ccc3c(c2)COc2cc4c(ccc5nc([C@@H]6C[C@H](COC)CN6C(=O)[C@@H](NC(=O)OC)[C@@H](C)CC)[nH]c54)cc2-3)[nH]1 [Example 580]	0.001 to 0.999 nM	0.001 to 0.99 nM	0.001 to 0.999 nM	0.001 to 0.999 nM	–	0.001 to 0.999 nM	0.001 to 0.99 nM
